This note sets out measurements from patent publication US20250101436A1, “APTAMERS AND SMALL MOLECULE LIGANDS” (MeiraGTx UK II Limited, priority 2021, published 2025).

The first series deals with N5-12G6 riboswitch. Briefly: Firefly luciferase assay, N5-12G6 riboswitch in HEK293 cells. To be noted: 12G6 riboswitch, HEK293.
Method: Transfection: 3.5×10^4 human embryonic kidney (HEK) 293 cells were plated in a 96-well flat bottom plate the day before transfection. Plasmid DNA (500 ng) was added to a tube or a 96-well U-bottom plate. Separately, TransIT-293 reagent (Mirus; 1.4 L) was added to 50 μL Optimum I media (Life Technologies) and allowed to sit for 5 minutes at room temperature (RT). Then, 50 μL of this diluted transfection reagent was added to the DNA, mixed, and incubated at RT for 20 min. Finally, 7 μL of this solution was added to a well of cells in the 96-well plate. Four hours after transfection, medium containing transfection solution was replaced by medium with either TPP or fursultiamine as aptamer ligands.
Firefly luciferase assay of cultured cells: Twenty-four hours after media change, plates were removed from the incubator, and equilibrated to RT for several minutes on a lab bench, then aspirated. Glo-lysis buffer (Promega, 100 μL, RT) was added, and the plates allowed to remain at RT for at least 5 minutes. Then, the well contents were mixed by 50 μL trituration, and 20 μL of each sample was mixed with 20 μL of bright-glo reagent (Promega) that had been diluted to 10% in glo-lysis buffer. 96 wells were spaced on an opaque white 384-well plate. Following a 5 min incubation at RT, luminescence was measured using a Tecan machine with 500 ms read time. The luciferase activity was expressed as mean arbitrary light units (ALU)±S.D., and fold induction was calculated as the quotient of the luciferase activity obtained from cells with TPP or analog compound treatment divided by the luciferase activity obtained from cells without TPP or analog compound treatment.
With `Fc1cc(CNc2cnccc2N2CCNCC2)cc2nccnc12` [compound 012, N-((8-Fluoroquinoxalin-6-yl)methyl)-4-(piperazin-1-yl)pyridin-3-amine], the “regulation of luciferase expression (FIG. 4e)” value is “regulate expression in a dose-dependent fashion”.
On the same count and under the same terms, the value for `Clc1cc2nccnc2cc1CNc1cnccc1N1CCNCC1` [compound 013, N-((7-Chloroquinoxalin-6-yl)methyl)-4-(piperazin-1-yl)pyridin-3-amine] was “regulate expression in a dose-dependent fashion”; that for `c1cc(N2CCCNCC2)c(NCc2ccc3nccnc3c2)cn1` [compound 014, 4-(1,4-Diazepan-1-yl)-N-(quinoxalin-6-ylmethyl)pyridin-3-amine] was “regulate expression in a dose-dependent fashion”.
Same read-out and setting: the value for `CC1CNCCN1c1ccncc1NCc1ccc2nccnc2c1` (stereo not shown) [compound 015, 4-(2-Methylpiperazin-1-yl)-N-(quinoxalin-6-ylmethyl)pyridin-3-amine] was “regulate expression in a dose-dependent fashion”.
Take `CC1CN(c2ccncc2NCc2ccc3nccnc3c2)CCN1` (stereo not shown) [compound 016, 4-(3-Methylpiperazin-1-yl)-N-(quinoxalin-6-ylmethyl)pyridin-3-amine]: the “regulation of luciferase expression (FIG. 4e)” value is listed as “regulate expression in a dose-dependent fashion”.
Still for that read-out and setting: the value for `c1cc(OC2CCNC2)c(NCc2ccc3nccnc3c2)cn1` (stereo not shown) [compound 018, 4-(Pyrrolidin-3-yloxy)-N-(quinoxalin-6-ylmethyl)pyridin-3-amine] was “regulate expression in a dose-dependent fashion”; that for `Clc1cncc(NCc2ccc3nccnc3c2)c1N1CCNCC1` [compound 019, 5-Chloro-4-(piperazin-1-yl)-N-(quinoxalin-6-ylmethyl)pyridin-3-amine] was “regulate expression in a dose-dependent fashion”.

The series is the same for the next values; noted with them: Homo sapiens, HEK293, read-out: Fold induction 2 μM (HEK), 12G6 riboswitch, luciferase, HEK293, 2 μM.
`Clc1cncc(NCc2ccc3nccnc3c2)c1N1CCNCC1` [compound 019, 5-Chloro-4-(piperazin-1-yl)-N-(quinoxalin-6-ylmethyl)pyridin-3-amine]: the fold induction at 2 µM was 60.2.
Still for that read-out and setting: under `C[C@@H]1CNCCN1c1ccncc1NCc1ccc2nccnc2c1` [compound 020, (R)-4-(2-Methylpiperazin-1-yl)-N-(quinoxalin-6-ylmethyl)pyridin-3-amine] stands 31.2; under `c1cc(O[C@@H]2CCNC2)c(NCc2ccc3nccnc3c2)cn1` [compound 021, (R)-4-(pyrrolidin-3-yloxy)-N-(quinoxalin-6-ylmethyl)pyridin-3-amine], 68.4; under `c1cc(OC2CNC2)c(NCc2ccc3nccnc3c2)cn1` [compound 022, 4-(Azetidin-3-yloxy)-N-(quinoxalin-6-ylmethyl)pyridin-3-amine], 43.2.
Still for that read-out and setting: under `Cc1cncc(NCc2ccc3nccnc3c2)c1N1CCNCC1` [compound 023, 5-Methyl-4-(piperazin-1-yl)-N-(quinoxalin-6-ylmethyl)pyridin-3-amine] stands 67.4; under `Fc1cc(N2CCNCC2)c(NCc2ccc3nccnc3c2)cn1` [compound 024, 6-Fluoro-4-(piperazin-1-yl)-N-(quinoxalin-6-ylmethyl)pyridin-3-amine], 35.1; under `C[C@H]1CN(c2c(Cl)cncc2NCc2ccc3nccnc3c2)CCN1` [compound 025, (S)-5-Chloro-4-(3-methylpiperazin-1-yl)-N-(quinoxalin-6-ylmethyl)pyridin-3-amine], 42.6.
On to `C[C@@H]1CNCCN1c1c(Cl)cncc1NCc1ccc2nccnc2c1` [compound 026, (R)-5-Chloro-4-(2-methylpiperazin-1-yl)-N-(quinoxalin-6-ylmethyl)pyridin-3-amine], for which the fold induction at 2 µM stood at 27.2.
Still for that read-out and setting: under `Clc1cncc(NCc2ccc3nccnc3c2)c1OC1CNC1` [compound 027, 4-(Azetidin-3-yloxy)-5-chloro-N-(quinoxalin-6-ylmethyl)pyridin-3-amine] stands 49.4; under `Fc1cc(CNc2cnccc2OC2CNC2)cc2nccnc12` [compound 028, 4-(Azetidin-3-yloxy)-N-((8-fluoroquinoxalin-6-yl)methyl)pyridin-3-amine], 33.

Still in this series, the particulars now being: Homo sapiens, HEK293, read-out: Fold induction 3.3 μM (HEK), 12G6 riboswitch, luciferase, HEK293, 3.3 μM.
Take `C[C@@H]1CNCCN1c1ccncc1NCc1ccc2nccnc2c1` [compound 020, (R)-4-(2-Methylpiperazin-1-yl)-N-(quinoxalin-6-ylmethyl)pyridin-3-amine]: the fold induction at 3.3 µM came out at 52.
Same read-out and setting: the value for `c1cc(O[C@@H]2CCNC2)c(NCc2ccc3nccnc3c2)cn1` [compound 021, (R)-4-(pyrrolidin-3-yloxy)-N-(quinoxalin-6-ylmethyl)pyridin-3-amine] was 62.

Still in this series, the particulars now being: Homo sapiens, HEK293, read-out: Fold induction 25 μM (HEK), 12G6 riboswitch, luciferase, HEK293, 25 μM.
Turning to `Fc1cc(CNc2cnccc2N2CCNCC2)cc2nccnc12` [compound 012, N-((8-Fluoroquinoxalin-6-yl)methyl)-4-(piperazin-1-yl)pyridin-3-amine], the fold induction at 25 µM amounted to 383.
As to `Clc1cc2nccnc2cc1CNc1cnccc1N1CCNCC1` [compound 013, N-((7-Chloroquinoxalin-6-yl)methyl)-4-(piperazin-1-yl)pyridin-3-amine], the fold induction at 25 µM was 314.
On the same count and under the same terms, the value for `c1cc(N2CCCNCC2)c(NCc2ccc3nccnc3c2)cn1` [compound 014, 4-(1,4-Diazepan-1-yl)-N-(quinoxalin-6-ylmethyl)pyridin-3-amine] was 251.
As to `CC1CNCCN1c1ccncc1NCc1ccc2nccnc2c1` (stereo not shown) [compound 015, 4-(2-Methylpiperazin-1-yl)-N-(quinoxalin-6-ylmethyl)pyridin-3-amine], the fold induction at 25 µM worked out at 329.
Same read-out and setting: the value for `CC1CN(c2ccncc2NCc2ccc3nccnc3c2)CCN1` (stereo not shown) [compound 016, 4-(3-Methylpiperazin-1-yl)-N-(quinoxalin-6-ylmethyl)pyridin-3-amine] was 287; that for `c1cc(C2CCNCC2)c(NCc2ccc3nccnc3c2)cn1` [compound 017, 4-(Piperidin-4-yl)-N-(quinoxalin-6-ylmethyl)pyridin-3-amine] was 130.
The same measure, in the same setting: the value for `c1cc(OC2CCNC2)c(NCc2ccc3nccnc3c2)cn1` (stereo not shown) [compound 018, 4-(Pyrrolidin-3-yloxy)-N-(quinoxalin-6-ylmethyl)pyridin-3-amine] was 286; that for `Clc1cncc(NCc2ccc3nccnc3c2)c1N1CCNCC1` [compound 019, 5-Chloro-4-(piperazin-1-yl)-N-(quinoxalin-6-ylmethyl)pyridin-3-amine] was 453.

Another series has as its system luciferase gene expression in HEK 293 cells in response to Comp. 004. Briefly: Screen of riboswitch constructs with 12C6-1 variant aptamers (libraries N1-N5) against Comp. 004, luciferase in HEK 293 cells. The series is classed as cell-based, human. Particulars: library N5 variant aptamers (L5, X16-X21 randomized) of 12C6-1 in riboswitch constructs; in response to Comp. 004 treatment; HEK 293 cells. The gist of the method:
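Riboswitch constructs carrying 12C6-1 aptamer variants, randomized in J2-4, J2-3/J3-3a/J3a-2/P3, L3a, J4-5/J5-4/P4 or L5 regions (libraries N1-N5), cloned into an intron-exon-intron cassette driving luciferase. Screened in HEK 293 cells with 25 µM Comp. 004; read-out is fold induction of gene expression versus parent Luci-12C6-1.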
For the compound “N5_9B8 (DNA CTGGGGAGTCCT; chemistry not given here)”, the “Fold (induction of luciferase gene expression)” value turned out to be 792.8 fold.
Same read-out and setting: under “N5_9C2 (DNA CTGGGGAGTCCT; chemistry not given here)” stands 1027.6 fold.
As to “N5_9C12 (DNA CTGGGGAGTCCT; chemistry not given here)”, the “Fold (induction of luciferase gene expression)” value was 1094.3 fold.
For “N5_9E6 (DNA CTGGGGAGTCCT; chemistry not given here)”, the “Fold (induction of luciferase gene expression)” value is 1020.7 fold.
Turning to “N5_9E12 (DNA CTGGGGAGTCCT; chemistry not given here)”, the “Fold (induction of luciferase gene expression)” value worked out at 1458.4 fold.
The same measure, in the same setting: under “N5_9F1 (DNA CTGGGGAGTCCT; chemistry not given here)” stands 875.6 fold; under “N5_9G5 (DNA CTGGGGAGTCCT; chemistry not given here)”, 725.3 fold; under “N5_9G7 (DNA CTGGGGAGTCCT; chemistry not given here)”, 937.7 fold.
For “N5_9H1 (DNA CTGGGGAGTCCT; chemistry not given here)”, the “Fold (induction of luciferase gene expression)” value is 1494.7 fold.
In the case of “N5_11B9 (CTGGGGAGTCCT; chemistry not given here)”, the “Fold (induction of luciferase gene expression)” value amounted to 1595.4 fold.
Regarding “N5_11D10 (CTGGGGAGTCCT; chemistry not given here)”, the “Fold (induction of luciferase gene expression)” value was 1719.3 fold.
For “N5_11F4 (CTGGGGAGTCCT; chemistry not given here)”, the “Fold (induction of luciferase gene expression)” value worked out at 1230.1 fold.
On to “N5_11G4 (CTGGGGAGTCCT; chemistry not given here)”, for which the “Fold (induction of luciferase gene expression)” value was found to be 931.9 fold.
The same measure, in the same setting: under “N5_11G11 (CTGGGGAGTCCT; chemistry not given here)” stands 1186.4 fold.
The same measure, in the same setting: the value for “N5_12E5 (CTGGGGAGTCCT; chemistry not given here)” was 1898.6 fold; that for “N5_12F4 (CTGGGGAGTCCT; chemistry not given here)” was 2096.2 fold.
Consider “N5_12F11 (CTGGGGAGTCCT; chemistry not given here)”, for which the “Fold (induction of luciferase gene expression)” value came to 926.7 fold.
Still for that read-out and setting: under “N5_12F12 (CTGGGGAGTCCT; chemistry not given here)” stands 1169.8 fold.
For “N5_12G2 (CTGGGGAGTCCT; chemistry not given here)”, the “Fold (induction of luciferase gene expression)” value was 1074.1 fold.
For the compound “N5_12G6 (CTGGGGAGTCCT; chemistry not given here)”, the “Fold (induction of luciferase gene expression)” value worked out at 2750.8 fold.
As for “N5_12G11 (CTGGGGAGTCCT; chemistry not given here)”, the “Fold (induction of luciferase gene expression)” value is listed as 1043.8 fold.
On the same count and under the same terms, the value for “N5_13C10 (CTGGGGAGTCCT; chemistry not given here)” was 1144.6 fold; that for “N5_13D1 (CTGGGGAGTCCT; chemistry not given here)” was 722.9 fold.
The same measure, in the same setting: under “N5_13D5 (CTGGGGAGTCCT; chemistry not given here)” stands 749.4 fold; under “N5_13E8 (CTGGGGAGTCCT; chemistry not given here)”, 2096.6 fold; under “N5_13G5 (CTGGGGAGTCCT; chemistry not given here)”, 1198.5 fold.
As for “N5_13G10 (CTGGGGAGTCCT; chemistry not given here)”, the “Fold (induction of luciferase gene expression)” value is listed as 1604.0 fold.
Same read-out and setting: the value for “N5_13G12 (CTGGGGAGTCCT; chemistry not given here)” was 1199.4 fold; that for “N5_13H3 (CTGGGGAGTCCT; chemistry not given here)” was 1288.5 fold; that for “N5_14B9 (CTGGGGAGTCCT; chemistry not given here)” was 897.5 fold.
For “N5_14B10 (CTGGGGAGTCCT; chemistry not given here)”, the “Fold (induction of luciferase gene expression)” value is 1133.0 fold.
Turning to “N5_14D10 (CTGGGGAGTCCT; chemistry not given here)”, the “Fold (induction of luciferase gene expression)” value was 950.5 fold.
Still for that read-out and setting: under “N5_14G11 (CTGGGGAGTCCT; chemistry not given here)” stands 1775.3 fold; under “N5_14H11 (CTGGGGAGTCCT; chemistry not given here)”, 918.4 fold.
